# Laboratory results: patent US20100029652A1, “Combination Therapy For Treating Hepatitis C Infections” (ACHILLION PHARMACEUTICALS, INC., priority 2007, published 2010)
# How the values were obtained:
# [1] = test system: HCV replicon in Huh-9-13 cells; test: Long term combination study: replicon curing assay, colony formation after G418 selection; assay type: cell-based, hepatitis C virus; details: approximately 5×EC50
# Description: In other repetitions of this experiment, treatment time varied from 7 to 10 days. Cells were passaged once every 3 days into new plates at the same density (10^5 cells/plate) and with fresh compounds. No G418 was present during the 9 day treatment. On day 10, the cells were passaged again to new plates at a density of 10^5 cells/plate, respectively, and were treated only with G418 for approximately 3 more weeks. […] During the 2˜3 weeks, the old media were replaced with fresh media twice a week. The colonies were fixed with 10% formaldehyde and stained with 2% crystal violet in 20% ethanol.
# In this assay, the number of the cells in which the replicons still remained after the 9-day treatment was quantified based on the number of the colonies formed after G418 selection.
# [2] = test system: HCV replicon (subtype 1b, Con-1) in Huh-luc/neo cells; test: Short term combination study: HCV replicon luciferase assay in Huh-luc/neo cells, 3-days treatment; assay type: cell-based, hepatitis C virus; details: for CI (SD) at Replicon inhibition of 50% / CI (SD) at Replicon inhibition of 75% / CI (SD) at Replicon inhibition of 90%: combined with ACH-806, Chou and Talalay; for CI (SD) at Replicon inhibition of 50% / CI (SD) at Replicon inhibition of 75% / CI (SD) at Replicon inhibition of 90% / Overall combinatory antiviral activity / Volume (SD) Antagonism / Volume (SD) Synergy: 3-days treatment; for Overall combinatory antiviral activity / Volume (SD) Antagonism / Volume (SD) Synergy: drug combined with ACH-806; for Volume (SD) Antagonism / Volume (SD) Synergy: Prichard and Shipman model; for combination effect on antiviral activity: in combination with ACH-806, Huh-luc/neo cells treated for 3 days
# Description: Huh-luc/neo cells were seeded in 96-well plates at a density of 7000 cells/per well. […] Dose-response curves for the individual compounds and their combinations were all run in quadruplicate.
# The experimental data were analyzed using CalcuSyn (Biosoft, Ferguson, Mo.), a computer program based on the method of Chou and Talalay (Chou, T. C. and P. Talalay, Quantitative analysis of dose-effect relationships: the combined effects of multiple drugs or enzyme inhibitors (1984) Adv. Enzyme Regul. 22: 27-55). In this model, the dose-effect curves for each drug or drug combination are converted to median-effect plots with the program. The effect of combination is then compared to that of a single agent. A combination index (CI) value for each experimental combination is calculated on the basis of the following equation:
# CI=[(D)1/(Dx)1]+[(D)2/(Dx)2]+[(D)1(D)2/(Dx)1(Dx)2],
# By convention a CI of <0.9 is considered synergistic, a CI of ≧0.9 or ≦1.1 is considered additive, and a CI of >1.1 is deemed antagonistic.
# The extent of synergy or antagonism was also assessed in a three-dimensional analytical method developed by Prichard and Shipman (Prichard, M. Shipman, K., A three-dimensional model to analyze drug-drug interactions, (1990) Antiviral Res. 14: 181-206). In this model, the theoretical additive effect is calculated from the dose-response curves of individual compounds by the equation Z=X+Y(1−X), where X and Y represent the inhibition produced by drug 1 alone and drug 2 alone, and respectively Z represents the effect produced by the combination of drug 1 and drug 2. The theoretical additive surface is subtracted from the actual experimental surface, resulting in a surface that would appear as a horizontal plane at 0% inhibition if the combination were merely additive. Any peak above this plane would indicate synergy, whereas any depression below it would indicate antagonism. The 95% confidence intervals for the experimental dose-response surface are used to evaluate the data statistically. The volume of the peak or depression is calculated to quantify the overall synergy or antagonism produced. Based on Prichard et al., volumes of synergy greater than 50 μM^2% may be considered significant as may volumes of antagonism of less than −50 μM^2%, wherein the units of the X and Y axis are both μM and the unit of the Z axis is the percentage of inhibition. Results
# [3] = single agent by itself, 9-day treatment
# [4] = in combination with ACH-806, 9-day treatment
smiles,measurement,setting,value
CCCCCOc1ccc(NC(=S)NC(=O)c2cccnc2)cc1C(F)(F)F [ACH-806],log reduction of replicon-containing cells,[1]; [3],1 log
same,replicon-containing cells cured,[1]; [3],about 90%
CC1(O)C(O)C(CO)OC1n1ccc(N)nc1=O (centres unmarked) [NM-107],log reduction of replicon-containing cells,[1]; [4],4 log
same,replicon-containing cells cured,[1]; [4],~99.99%
same,log reduction of replicon-containing cells,[1]; [3],1 log
same,replicon-containing cells cured,[1]; [3],about 90%
same,CI (SD) at Replicon inhibition of 50%,[2]; molar ratio 1:16,0.69 (0.02)
same,CI (SD) at Replicon inhibition of 75%,[2]; molar ratio 1:16,0.72 (0.06)
same,CI (SD) at Replicon inhibition of 90%,[2]; molar ratio 1:16,0.79 (0.12)
same,CI (SD) at Replicon inhibition of 50%,[2]; molar ratio 1:32,0.67 (0.07)
same,CI (SD) at Replicon inhibition of 75%,[2]; molar ratio 1:32,0.71 (0.05)
same,CI (SD) at Replicon inhibition of 90%,[2]; molar ratio 1:32,0.83 (0.25)
same,Overall combinatory antiviral activity,[2],Synergy
same,Volume (SD) Antagonism,[2],2 (2) μM^2%
same,Volume (SD) Synergy,[2],116 (77) μM^2%
same,combination effect on antiviral activity,[2],synergistic antiviral activity
"CCC[C@H](NC(=O)[C@@H]1[C@H]2CCC[C@H]2CN1C(=O)[C@@H](NC(=O)[C@@H](NC(=O)c1cnccn1)C1CCCCC1)C(C)(C)C)C(=O)C(=O)NC1CC1 [VX-950, telaprevir]",CI (SD) at Replicon inhibition of 50%,[2]; molar ratio 1:10,0.86 (0.09)
same,CI (SD) at Replicon inhibition of 75%,[2]; molar ratio 1:10,0.82 (0.11)
same,CI (SD) at Replicon inhibition of 90%,[2]; molar ratio 1:10,0.83 (0.13)
same,CI (SD) at Replicon inhibition of 50%,[2]; molar ratio 1:20,0.79 (0.06)
same,CI (SD) at Replicon inhibition of 75%,[2]; molar ratio 1:20,0.61 (0.12)
same,CI (SD) at Replicon inhibition of 90%,[2]; molar ratio 1:20,0.50 (0.15)
same,Overall combinatory antiviral activity,[2],Synergy
same,Volume (SD) Antagonism,[2],8 (3) μM^2%
same,Volume (SD) Synergy,[2],119 (4) μM^2%
same,combination effect on antiviral activity,[2],synergistic antiviral activity
